The values that follow come from ChEMBL document CHEMBL1201862, “PubChem BioAssay data set” (2004).

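48-hour exposure; five concentrations; linearly interpolated endpoints. GI50 is the concentration that inhibits growth by half.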 The source made the active and inactive calls. Cut-off read from the data, not from the text of the source: active = GI50 up to about 1.1 µM and inactive = higher.

Some test systems named below: NCI-H522; MDA-MB-231; A498; SF-295; MDA-MB-435; RPMI-8226; K562; SNB-75; DU-145; M14; SF-268; TK-10; HOP-62; UACC-257; A549; SW-620; SK-MEL-5; LOX IMVI.
Test in all cases: growth of human tumour cells (NCI), 48 h

Regarding `Cc1cc(-c2ccc(C(=O)O)[nH]2)on1`, the GI50 in the assay with NCI-H522 is 29 µM (inactive); in the assay on MDA-MB-231 it was > 100 µM (inactive); in the assay with A498 it was > 100 µM (inactive); in the assay with SF-295, 47.3 µM (inactive); in the assay with MDA-MB-435, 6.98 µM (inactive); in the assay on RPMI-8226, 62.7 µM (inactive). Also, the GI50 in the assay with K562 is 56 µM (inactive); in the assay with SNB-75, 44.3 µM (inactive); in the assay on DU-145, 62.4 µM (inactive); in the assay with M14 it was 52 µM (inactive); in the assay on SF-268, > 100 µM (inactive); with TK-10 it was > 100 µM (inactive). Further, the GI50 with HOP-62 was 65.2 µM (inactive); with UACC-257, > 100 µM (inactive); in the assay on A549 it was 34.8 µM (inactive); in the assay on SW-620, 30.1 µM (inactive); in the assay with SK-MEL-5, 16.1 µM (inactive).

With `Cc1cc(O)nc(NN2C(Cl)C(=O)C2c2cccc(O)c2)n1` (stereo unspecified), the GI50 was 9.59 µM (inactive) in the assay with RPMI-8226; 2.7 µM (inactive) with K562; 1.64 µM (inactive) with SNB-75; 7.13 µM (inactive) in the assay with M14; 4.53 µM (inactive) with LOX IMVI; 5.62 µM (inactive) with SF-268. For the same compound, the GI50 is 42.5 µM (inactive) with TK-10; 4.49 µM (inactive) in the assay with HOP-62; 18.7 µM (inactive) in the assay on UACC-257; 4.44 µM (inactive) in the assay with A549; 12.4 µM (inactive) with SW-620; 12.2 µM (inactive) in the assay with SK-MEL-5.

Turning to `O=C(Nc1nc(C23CC4CC(CC(C4)C2)C3)cs1)c1cc2ccc(O)cc2oc1=O`, the GI50 in the assay on NCI-H522 is 10.2 µM (inactive); in the assay on MDA-MB-231, 6.04 µM (inactive); in the assay on A498, 10.7 µM (inactive); with SF-295, 16.5 µM (inactive); with MDA-MB-435, 8.38 µM (inactive); with RPMI-8226, 5.35 µM (inactive). The GI50 with K562 was 4.88 µM (inactive); with DU-145 it was 18.3 µM (inactive); in the assay with LOX IMVI, 8.07 µM (inactive); in the assay with SF-268, 16.9 µM (inactive); with TK-10, 26.8 µM (inactive); with HOP-62, 15.2 µM (inactive). The GI50 was 15.6 µM (inactive) in the assay with UACC-257, 15.9 µM (inactive) with A549, 10.3 µM (inactive) in the assay on SW-620 and 13.7 µM (inactive) in the assay with SK-MEL-5.

As for `Nc1ccc(Oc2ccc(C3(c4ccc(Oc5ccc(N)cc5)cc4)C4CC5C6CC7CC5C3C(C7)C6C4)cc2)cc1`, the GI50 was > 81.7 µM (inactive) in the assay on NCI-H522; 23.1 µM (inactive) in the assay with MDA-MB-231; 4.01 µM (inactive) in the assay on A498; 54.8 µM (inactive) with SF-295; 19 µM (inactive) in the assay on MDA-MB-435; 14.8 µM (inactive) in the assay with RPMI-8226. Further, the GI50 with K562 is 16 µM (inactive); with SNB-75 it was > 100 µM (inactive); with DU-145, 9.04 µM (inactive); in the assay with M14, 3.87 µM (inactive); in the assay on LOX IMVI it was 6.01 µM (inactive); in the assay on SF-268, > 53.2 µM (inactive). Besides, the GI50 was > 78 µM (inactive) in the assay on TK-10; 72.9 µM (inactive) in the assay with HOP-62; > 58.6 µM (inactive) in the assay on UACC-257; 0.706 µM (active) in the assay on A549; 97.3 µM (inactive) in the assay on SW-620; 52.6 µM (inactive) in the assay with SK-MEL-5.

For the compound `CCCCCCCCCCCCCCCCC1=CC(=O)C=C(OC)C1=O`, the GI50 was > 100 µM (inactive) with NCI-H522; > 100 µM (inactive) in the assay with MDA-MB-231; 48.5 µM (inactive) in the assay on A498; > 100 µM (inactive) with SF-295; > 100 µM (inactive) with MDA-MB-435; 91.2 µM (inactive) with RPMI-8226. In addition, the GI50 was 47.4 µM (inactive) with K562; > 100 µM (inactive) in the assay on SNB-75; > 100 µM (inactive) in the assay on DU-145; > 100 µM (inactive) with M14; 65.3 µM (inactive) in the assay on LOX IMVI; > 100 µM (inactive) with SF-268. Also, the GI50 in the assay on TK-10 was > 100 µM (inactive); in the assay with HOP-62, > 100 µM (inactive); in the assay with UACC-257, > 100 µM (inactive); in the assay on A549, 89.5 µM (inactive); in the assay with SW-620, > 100 µM (inactive); in the assay with SK-MEL-5 it was > 100 µM (inactive).
